Tests used:
Assay in all cases: Drug affinity chromatography with c-ponatinib and LC-MS/MS (ponatinib interactome)
Type in all cases: binding
[1] = target: T1, proteins of U2OS cell lysate (Homo sapiens, UniProt O94921); settings: CDK14, Cyclin-dependent kinase 14
T1 construct: Proteins enriched by c-ponatinib from U2OS cell lysate; endogenous in cells; host or cells: U2OS cell lysate
In short: (§1)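 Proteins were identified by nano-UPLC–MS/MS after elution with formic acid and trypsin digestion. They were captured from U2OS lysate (2 mg protein per pulldown, NP-40 buffer) on amine-coupled NHS beads during a 2 h incubation at 4 °C.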

[2] = target: T2, proteins of U2OS cell lysate (Homo sapiens, UniProt P07355); settings: ANXA2;ANXA2P2, Annexin A2
T2 construct: Proteins enriched by c-ponatinib from U2OS cell lysate; endogenous in cells; host or cells: U2OS cell lysate
In short: as §1

[3] = target: T3, proteins of U2OS cell lysate (Homo sapiens, UniProt P11142); settings: HSPA8, Heat shock cognate 71 kDa protein
T3 construct: Proteins enriched by c-ponatinib from U2OS cell lysate; endogenous in cells; host or cells: U2OS cell lysate
In short: as §1

[4] = target: T4, proteins of U2OS cell lysate (Homo sapiens, UniProt P62906); settings: RPL10A, 60S ribosomal protein L10a
T4 construct: Proteins enriched by c-ponatinib from U2OS cell lysate; endogenous in cells; host or cells: U2OS cell lysate
In short: as §1

[5] = target: T5, proteins of U2OS cell lysate (Homo sapiens, UniProt P17844); settings: DDX5, Probable ATP-dependent RNA helicase DDX5
T5 construct: Proteins enriched by c-ponatinib from U2OS cell lysate; endogenous in cells; host or cells: U2OS cell lysate
In short: as §1

[6] = target: T6, proteins of U2OS cell lysate (Homo sapiens, UniProt P55072); settings: VCP, Transitional endoplasmic reticulum ATPase
T6 construct: Proteins enriched by c-ponatinib from U2OS cell lysate; endogenous in cells; host or cells: U2OS cell lysate
In short: as §1

[7] = target: T7, proteins of U2OS cell lysate (Homo sapiens, UniProt P08195); settings: SLC3A2, 4F2 cell-surface antigen heavy chain
T7 construct: Proteins enriched by c-ponatinib from U2OS cell lysate; endogenous in cells; host or cells: U2OS cell lysate
In short: as §1

[8] = target: T8, proteins of U2OS cell lysate (Homo sapiens, UniProt O43353); settings: RIPK2, Receptor-interacting serine/threonine-protein kinase 2
T8 construct: Proteins enriched by c-ponatinib from U2OS cell lysate; endogenous in cells; host or cells: U2OS cell lysate
In short: as §1

[9] = target: T9, proteins of U2OS cell lysate (Homo sapiens, UniProt P02545); settings: LMNA, Prelamin-A/C;Lamin-A/C
T9 construct: Proteins enriched by c-ponatinib from U2OS cell lysate; endogenous in cells; host or cells: U2OS cell lysate
In short: as §1

[10] = target: T10, proteins of U2OS cell lysate (Homo sapiens, UniProt P13861); settings: PRKAR2A, cAMP-dependent protein kinase type II-alpha regulatory subunit
T10 construct: Proteins enriched by c-ponatinib from U2OS cell lysate; endogenous in cells; host or cells: U2OS cell lysate
In short: as §1

[11] = target: T11, proteins of U2OS cell lysate (Homo sapiens, UniProt P49792); settings: RANBP2, E3 SUMO-protein ligase RanBP2
T11 construct: Proteins enriched by c-ponatinib from U2OS cell lysate; endogenous in cells; host or cells: U2OS cell lysate
T11 sequence (P49792 whole entry): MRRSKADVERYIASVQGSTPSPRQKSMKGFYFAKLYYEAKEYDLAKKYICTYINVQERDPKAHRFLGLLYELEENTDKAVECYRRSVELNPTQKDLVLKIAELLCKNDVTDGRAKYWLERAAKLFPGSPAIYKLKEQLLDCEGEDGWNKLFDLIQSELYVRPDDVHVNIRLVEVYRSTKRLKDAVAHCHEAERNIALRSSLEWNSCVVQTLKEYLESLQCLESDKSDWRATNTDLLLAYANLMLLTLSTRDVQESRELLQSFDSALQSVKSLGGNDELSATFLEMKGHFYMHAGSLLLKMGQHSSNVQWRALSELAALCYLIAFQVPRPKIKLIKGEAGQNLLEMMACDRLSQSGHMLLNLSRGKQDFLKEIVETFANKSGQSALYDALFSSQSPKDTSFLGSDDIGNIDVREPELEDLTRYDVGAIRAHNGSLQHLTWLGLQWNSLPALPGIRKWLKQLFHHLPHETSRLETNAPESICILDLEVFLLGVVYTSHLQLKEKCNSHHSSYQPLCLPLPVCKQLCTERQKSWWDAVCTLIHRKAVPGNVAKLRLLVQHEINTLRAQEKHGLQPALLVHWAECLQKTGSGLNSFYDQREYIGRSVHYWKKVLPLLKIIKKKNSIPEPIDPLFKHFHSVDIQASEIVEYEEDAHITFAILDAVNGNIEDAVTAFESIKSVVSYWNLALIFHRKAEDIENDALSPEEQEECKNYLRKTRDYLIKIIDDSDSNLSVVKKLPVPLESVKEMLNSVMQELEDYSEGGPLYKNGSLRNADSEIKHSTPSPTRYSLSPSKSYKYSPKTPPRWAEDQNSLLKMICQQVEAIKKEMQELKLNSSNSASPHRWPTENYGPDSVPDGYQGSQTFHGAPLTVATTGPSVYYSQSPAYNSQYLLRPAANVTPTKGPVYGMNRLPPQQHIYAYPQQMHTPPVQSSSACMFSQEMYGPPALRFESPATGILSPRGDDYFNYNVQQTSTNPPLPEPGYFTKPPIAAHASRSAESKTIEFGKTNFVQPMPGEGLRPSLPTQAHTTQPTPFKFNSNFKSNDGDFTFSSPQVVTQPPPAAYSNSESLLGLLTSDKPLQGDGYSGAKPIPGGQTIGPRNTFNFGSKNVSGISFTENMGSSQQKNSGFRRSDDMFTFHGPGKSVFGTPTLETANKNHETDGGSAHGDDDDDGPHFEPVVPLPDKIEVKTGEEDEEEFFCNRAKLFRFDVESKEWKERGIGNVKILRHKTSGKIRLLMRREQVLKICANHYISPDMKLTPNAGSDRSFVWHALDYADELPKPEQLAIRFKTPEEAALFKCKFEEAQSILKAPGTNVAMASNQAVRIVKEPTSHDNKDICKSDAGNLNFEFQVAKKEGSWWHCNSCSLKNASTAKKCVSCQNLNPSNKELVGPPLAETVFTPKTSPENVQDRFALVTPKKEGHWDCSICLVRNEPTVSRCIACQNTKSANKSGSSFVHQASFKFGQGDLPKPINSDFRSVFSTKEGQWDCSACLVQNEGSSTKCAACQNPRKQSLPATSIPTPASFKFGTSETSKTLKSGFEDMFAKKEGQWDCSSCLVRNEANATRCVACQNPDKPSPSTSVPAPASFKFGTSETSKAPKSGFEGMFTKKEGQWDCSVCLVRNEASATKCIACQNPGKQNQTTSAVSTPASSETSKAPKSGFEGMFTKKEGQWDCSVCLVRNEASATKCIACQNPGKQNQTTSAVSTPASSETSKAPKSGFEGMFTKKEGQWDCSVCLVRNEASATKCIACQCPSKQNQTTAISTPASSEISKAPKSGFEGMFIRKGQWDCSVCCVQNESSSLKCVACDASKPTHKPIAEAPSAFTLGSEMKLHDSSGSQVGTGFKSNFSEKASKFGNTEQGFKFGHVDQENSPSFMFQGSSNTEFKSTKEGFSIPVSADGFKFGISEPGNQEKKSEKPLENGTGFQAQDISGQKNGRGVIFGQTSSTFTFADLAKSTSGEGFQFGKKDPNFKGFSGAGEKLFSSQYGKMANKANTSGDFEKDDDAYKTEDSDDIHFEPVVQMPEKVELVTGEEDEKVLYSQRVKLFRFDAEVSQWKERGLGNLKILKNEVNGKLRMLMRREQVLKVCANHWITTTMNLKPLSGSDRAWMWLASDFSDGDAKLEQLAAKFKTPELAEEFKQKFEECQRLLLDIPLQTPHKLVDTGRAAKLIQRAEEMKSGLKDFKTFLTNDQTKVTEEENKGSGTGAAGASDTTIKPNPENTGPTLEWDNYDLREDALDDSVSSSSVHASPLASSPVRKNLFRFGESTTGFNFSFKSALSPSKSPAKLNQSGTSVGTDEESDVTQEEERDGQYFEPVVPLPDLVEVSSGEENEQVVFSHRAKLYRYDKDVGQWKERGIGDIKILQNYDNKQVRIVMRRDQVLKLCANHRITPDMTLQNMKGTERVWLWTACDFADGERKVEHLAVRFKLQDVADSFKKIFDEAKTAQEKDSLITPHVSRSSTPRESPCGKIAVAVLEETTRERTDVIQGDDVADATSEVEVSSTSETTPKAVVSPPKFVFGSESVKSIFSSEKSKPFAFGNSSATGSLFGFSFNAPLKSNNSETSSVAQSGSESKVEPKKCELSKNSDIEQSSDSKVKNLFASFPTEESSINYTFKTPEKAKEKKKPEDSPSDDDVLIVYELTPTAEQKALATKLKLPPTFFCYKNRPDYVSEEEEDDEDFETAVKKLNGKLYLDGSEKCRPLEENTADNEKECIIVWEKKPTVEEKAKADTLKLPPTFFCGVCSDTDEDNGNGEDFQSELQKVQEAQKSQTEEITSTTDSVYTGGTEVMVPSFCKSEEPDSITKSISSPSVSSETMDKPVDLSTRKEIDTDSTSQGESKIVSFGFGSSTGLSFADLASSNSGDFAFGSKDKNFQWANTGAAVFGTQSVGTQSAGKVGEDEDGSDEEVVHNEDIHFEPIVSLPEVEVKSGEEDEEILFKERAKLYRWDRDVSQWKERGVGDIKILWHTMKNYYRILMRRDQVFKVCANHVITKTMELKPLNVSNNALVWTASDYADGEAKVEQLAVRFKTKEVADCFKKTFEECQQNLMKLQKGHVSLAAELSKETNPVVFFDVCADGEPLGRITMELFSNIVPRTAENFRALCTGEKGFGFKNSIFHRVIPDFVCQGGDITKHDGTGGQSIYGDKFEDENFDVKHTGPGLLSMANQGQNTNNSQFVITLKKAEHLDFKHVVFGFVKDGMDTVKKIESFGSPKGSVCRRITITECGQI
In short: as §1

[12] = target: T12, proteins of U2OS cell lysate (Homo sapiens, UniProt P22830); settings: FECH, Ferrochelatase, mitochondrial
T12 construct: Proteins enriched by c-ponatinib from U2OS cell lysate; endogenous in cells; host or cells: U2OS cell lysate
In short: as §1

[13] = target: T13, proteins of U2OS cell lysate (Homo sapiens, UniProt P62714); settings: PPP2CB, Serine/threonine-protein phosphatase 2A catalytic subunit beta isoform
T13 construct: Proteins enriched by c-ponatinib from U2OS cell lysate; endogenous in cells; host or cells: U2OS cell lysate
T13 sequence (P62714 whole entry, canonical isoform): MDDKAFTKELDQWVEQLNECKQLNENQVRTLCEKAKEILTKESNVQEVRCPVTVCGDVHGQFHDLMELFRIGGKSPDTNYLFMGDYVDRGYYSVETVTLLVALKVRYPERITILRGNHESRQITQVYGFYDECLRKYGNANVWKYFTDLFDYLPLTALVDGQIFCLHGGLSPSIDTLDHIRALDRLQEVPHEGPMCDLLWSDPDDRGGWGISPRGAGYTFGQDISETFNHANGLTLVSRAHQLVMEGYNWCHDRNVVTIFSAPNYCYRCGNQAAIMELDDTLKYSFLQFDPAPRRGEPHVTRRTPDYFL
In short: as §1

[14] = target: T14, proteins of U2OS cell lysate (Homo sapiens, UniProt P62191); settings: PSMC1, 26S protease regulatory subunit 4
T14 construct: Proteins enriched by c-ponatinib from U2OS cell lysate; endogenous in cells; host or cells: U2OS cell lysate
T14 sequence (P62191 whole entry): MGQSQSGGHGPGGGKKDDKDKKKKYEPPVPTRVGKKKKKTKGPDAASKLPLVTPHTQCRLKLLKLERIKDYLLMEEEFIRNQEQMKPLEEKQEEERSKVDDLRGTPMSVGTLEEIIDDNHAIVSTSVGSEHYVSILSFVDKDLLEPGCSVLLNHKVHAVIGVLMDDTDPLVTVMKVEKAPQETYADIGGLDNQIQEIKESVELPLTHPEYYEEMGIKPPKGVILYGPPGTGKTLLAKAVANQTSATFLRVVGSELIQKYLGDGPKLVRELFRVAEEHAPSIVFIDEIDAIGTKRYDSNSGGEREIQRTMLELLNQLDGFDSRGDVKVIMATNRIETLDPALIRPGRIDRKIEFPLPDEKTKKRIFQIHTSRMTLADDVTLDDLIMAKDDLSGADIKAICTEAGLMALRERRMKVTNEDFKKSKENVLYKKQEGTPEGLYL
In short: as §1

[15] = target: T15, proteins of U2OS cell lysate (Homo sapiens, UniProt P28070); settings: PSMB4, Proteasome subunit beta type-4
T15 construct: Proteins enriched by c-ponatinib from U2OS cell lysate; endogenous in cells; host or cells: U2OS cell lysate
T15 sequence (P28070 46-264): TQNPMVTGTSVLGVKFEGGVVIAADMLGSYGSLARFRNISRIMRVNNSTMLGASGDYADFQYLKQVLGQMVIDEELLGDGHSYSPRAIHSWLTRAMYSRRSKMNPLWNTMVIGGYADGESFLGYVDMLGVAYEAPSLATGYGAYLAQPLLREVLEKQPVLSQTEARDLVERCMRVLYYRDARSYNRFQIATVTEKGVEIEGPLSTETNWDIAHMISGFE
In short: as §1

[16] = target: T16, proteins of U2OS cell lysate (Homo sapiens, UniProt P05556); settings: ITGB1, Integrin beta-1
T16 construct: Proteins enriched by c-ponatinib from U2OS cell lysate; endogenous in cells; host or cells: U2OS cell lysate
In short: as §1

[17] = target: T17, proteins of U2OS cell lysate (Homo sapiens, UniProt P06576); settings: ATP5B, ATP synthase subunit beta, mitochondrial
T17 construct: Proteins enriched by c-ponatinib from U2OS cell lysate; endogenous in cells; host or cells: U2OS cell lysate
In short: as §1

[18] = target: T18, proteins of U2OS cell lysate (Homo sapiens, UniProt P10606); settings: captured protein COX5B, Rank 183
T18 construct: Proteins enriched by c-ponatinib from U2OS cell lysate; endogenous in cells; host or cells: U2OS cell lysate
T18 sequence (P10606 32-129): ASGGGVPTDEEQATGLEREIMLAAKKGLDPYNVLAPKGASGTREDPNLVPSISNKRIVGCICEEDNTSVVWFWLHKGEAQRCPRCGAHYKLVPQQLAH
In short: as §1

[19] = target: T19, proteins of U2OS cell lysate (Homo sapiens, UniProt P25787); settings: captured protein PSMA2, Rank 214
T19 construct: Proteins enriched by c-ponatinib from U2OS cell lysate; endogenous in cells; host or cells: U2OS cell lysate
T19 sequence (P25787 whole entry): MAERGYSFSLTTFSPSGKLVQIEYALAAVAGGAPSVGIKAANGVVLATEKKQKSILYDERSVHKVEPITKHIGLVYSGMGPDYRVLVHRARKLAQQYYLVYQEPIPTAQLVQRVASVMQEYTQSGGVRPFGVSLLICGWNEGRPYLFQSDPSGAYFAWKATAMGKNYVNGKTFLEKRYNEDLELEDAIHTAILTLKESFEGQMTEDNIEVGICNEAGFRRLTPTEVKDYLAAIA
In short: as §1

T1 sequence (O94921 whole entry): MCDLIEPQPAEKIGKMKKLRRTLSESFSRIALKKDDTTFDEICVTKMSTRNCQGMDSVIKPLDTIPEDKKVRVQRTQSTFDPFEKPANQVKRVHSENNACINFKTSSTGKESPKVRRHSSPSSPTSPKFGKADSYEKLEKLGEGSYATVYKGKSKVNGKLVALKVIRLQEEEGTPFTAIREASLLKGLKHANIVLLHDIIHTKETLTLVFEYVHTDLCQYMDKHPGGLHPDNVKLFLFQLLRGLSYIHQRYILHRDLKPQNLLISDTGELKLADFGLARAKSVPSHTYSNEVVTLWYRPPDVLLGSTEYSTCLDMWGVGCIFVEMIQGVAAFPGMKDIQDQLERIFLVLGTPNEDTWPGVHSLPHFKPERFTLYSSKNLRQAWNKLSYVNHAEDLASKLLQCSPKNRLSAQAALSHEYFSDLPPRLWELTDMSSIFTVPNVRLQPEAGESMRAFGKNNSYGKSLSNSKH

Row | SMILES | Average LFQ PON_WT [1] | Average LFQ PON_WT [2] | Average LFQ PON_WT [3] | Average LFQ PON_WT [4] | Average LFQ PON_WT [5] | Average LFQ PON_WT [6] | Average LFQ PON_WT [7] | Average LFQ PON_WT [8] | Average LFQ PON_WT [9] | Average LFQ PON_WT [10] | Average LFQ PON_WT [11] | Average LFQ PON_WT [12] | Average LFQ PON_WT [13] | Average LFQ PON_WT [14] | Average LFQ PON_WT [15] | Average LFQ PON_WT [16] | Average LFQ PON_WT [17] | Average LFQ intensity [18] | Average LFQ intensity [19]
1 | Cc1ccc(C(=O)Nc2ccc(CN3CCN(C)CC3)c(C(F)(F)F)c2)cc1C#Cc1cnc2cccnn12 [PON] | 25.6287 | 23.7363 | 27.1657 | 19.7018 | 21.2715 | 23.9947 | 18.7801 | 27.2483 | 23.7594 | 19.7853 | 18.8692 | 25.7972 | 21.415 | 23.3461 | 21.0941 | 20.3187 | 26.0565 | – | –
2 | Cc1ccc(C(=O)Nc2ccc(CN3CCN(CCCN)CC3)c(C(F)(F)F)c2)cc1C#Cc1cnc2cccnn12 [c-ponatinib, reference compound] | – | – | – | – | – | – | – | – | – | – | – | – | – | – | – | – | – | 22.1378 | 21.6987

From article PMC6120666 (The EMBO Journal, 2018)
